IC50 data for 21 compounds are collected here from US20250099478A1, “PLASMA KALLIKREIN INHIBITORS” (Merck Sharp & Dohme LLC, priority 2022, published 2025).

T2 sequence (P03951 388-625 limits assumed): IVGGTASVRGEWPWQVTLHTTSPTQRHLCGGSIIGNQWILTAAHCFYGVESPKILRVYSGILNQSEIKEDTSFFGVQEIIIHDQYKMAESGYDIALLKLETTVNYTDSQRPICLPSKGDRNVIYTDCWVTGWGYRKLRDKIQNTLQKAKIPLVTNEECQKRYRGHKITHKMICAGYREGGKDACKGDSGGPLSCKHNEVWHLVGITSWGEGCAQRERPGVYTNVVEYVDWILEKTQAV
T2 sequence (P03951 19-387 partner limits assumed): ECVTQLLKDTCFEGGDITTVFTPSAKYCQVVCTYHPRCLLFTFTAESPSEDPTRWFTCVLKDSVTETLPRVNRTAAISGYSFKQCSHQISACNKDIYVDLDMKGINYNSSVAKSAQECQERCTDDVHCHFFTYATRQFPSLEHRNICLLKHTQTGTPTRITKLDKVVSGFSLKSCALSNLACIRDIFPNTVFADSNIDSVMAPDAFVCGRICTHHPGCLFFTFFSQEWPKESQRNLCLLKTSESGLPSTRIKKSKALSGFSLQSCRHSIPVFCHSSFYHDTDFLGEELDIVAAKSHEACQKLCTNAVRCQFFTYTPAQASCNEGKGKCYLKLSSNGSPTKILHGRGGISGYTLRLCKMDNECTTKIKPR

The target of one assay is T1, Human plasma kallikrein (Homo sapiens, UniProt P03952).
T1 construct: yields a heavy chain (371 amino acids) and a light chain (248 amino acids); purchased Enzyme Research Laboratories
T1 sequence (P03952 391-638 limits assumed): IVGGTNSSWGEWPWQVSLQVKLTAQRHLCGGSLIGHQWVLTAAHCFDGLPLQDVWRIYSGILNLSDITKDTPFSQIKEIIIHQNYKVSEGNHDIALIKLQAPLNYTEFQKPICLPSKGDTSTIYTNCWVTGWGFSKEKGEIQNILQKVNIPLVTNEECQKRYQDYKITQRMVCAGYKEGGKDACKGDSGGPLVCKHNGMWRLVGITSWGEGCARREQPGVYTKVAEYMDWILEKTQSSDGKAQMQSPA
T1 sequence (P03952 20-390 partner limits assumed): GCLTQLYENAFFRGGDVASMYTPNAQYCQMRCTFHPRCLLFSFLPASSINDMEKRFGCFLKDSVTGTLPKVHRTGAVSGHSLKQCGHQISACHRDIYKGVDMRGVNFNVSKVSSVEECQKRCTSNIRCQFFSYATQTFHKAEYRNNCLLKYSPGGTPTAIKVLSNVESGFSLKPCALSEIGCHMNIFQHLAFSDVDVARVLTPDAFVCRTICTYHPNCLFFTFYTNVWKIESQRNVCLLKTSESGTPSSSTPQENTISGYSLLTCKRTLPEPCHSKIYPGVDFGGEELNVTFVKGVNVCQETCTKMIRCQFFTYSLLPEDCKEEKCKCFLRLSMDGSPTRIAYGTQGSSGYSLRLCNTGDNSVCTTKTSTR
Put plainly: Plasma Kallikrein Assay. The assay is classed as biochemical. The settings on record: purified Human plasma kallikrein 0.5 nM, substrate Acetyl-K-P-R-AFC; read-out: PKal IC50. As to the method:
(§1) The effectiveness of a compound of the present invention as an inhibitor of plasma kallikrein can be determined using a relevant purified serine protease, and an appropriate synthetic substrate. The rate of hydrolysis of the chromogenic or fluorogenic substrate by the relevant serine protease was measured both in the absence and presence of compounds of the present invention. Assays were conducted at rt or at 37° C. […] A decrease in the rate of fluorescence change in the presence of inhibitor is indicative of enzyme inhibition. Such methods are known to one skilled in the art. The results of this assay are expressed as the half-maximal inhibitory concentrations (IC50), or the inhibitory constant, Ki.
Plasma kallikrein determinations were made in 50 mM HEPES buffer at pH 7.4 containing 150 mM NaCl, 5 mM CaCl2), and 0.1% PEG 8000 (polyethylene glycol; Fisher Scientific). Determinations were made using purified Human plasma kallikrein at a final concentration of 0.5 nM (Enzyme Research Laboratories) and the synthetic substrate, Acetyl-K-P-R-AFC (Sigma #C6608) at a concentration of […].
Times required to achieve equilibration between enzyme and inhibitor were determined in control experiments. […] IC50 was determined by inflection point from a four parameter logistic curve fit. Ki was calculated using the Cheng Prusoff equation, Ki=IC50/(1+([S]/Km)).
Consider `O=C1Nc2ccc(Cl)c(F)c2[C@@]2(CCCN(C(=O)c3nnc(C(Cc4ccccc4)c4ccccc4)[nH]3)C2)O1` (single isomer, unassigned) [Example 105], for which the IC50 (usually the concentration that gives 50% inhibition) is 17.3 nM.
Still for that read-out and setting: next, `CCC(c1c(C)noc1C)n1cc(C(=O)N2CCC[C@@]3(C2)OC(=O)Nc2ccc(Cl)c(F)c23)cn1` (single isomer, unassigned) [Example 44]: 5.9 nM; `O=C1Nc2ccc(Cl)c(F)c2[C@@]2(CCCN(C(=O)c3nnc(C(Cc4ccccc4)c4ccccc4)[nH]3)C2)O1` (single isomer, unassigned) [Example 104]: 16.6 nM.
Regarding `CCC(c1ccc2cnccc2c1)n1cc(C(=O)N2CCC[C@@]3(C2)OC(=O)Nc2ccc(Cl)c(F)c23)cn1` (single isomer, unassigned) [Example 36], the IC50 amounted to 2.8 nM.
On the same count and under the same terms, for `O=C1Nc2ccc(Cl)c(F)c2[C@]2(CCN(C(=O)c3cnn(Cc4ccc(Cn5ccccc5=O)cn4)c3)C2)O1` [Example 133, (S)-6-Chloro-5-fluoro-1′-(1-((5-((2-oxopyridin-1(2H)-yl)methyl)pyridin-2-yl)methyl)-1H-pyrazole-4-carbonyl)spiro[benzo[d][1,3]oxazine-4,3′-pyrrolidin]-2(1H)-one] the value was 15.1 nM; for `CCC(c1ccc2ncncc2c1)n1cc(C(=O)N2CCC[C@@]3(C2)OC(=O)Nc2ccc(Cl)c(F)c23)cn1` (single isomer, unassigned) [Example 41], 33.8 nM; for `CN1CCOc2cc(Cn3cc(C(=O)N4CCC[C@@]5(C4)OC(=O)Nc4ccc(Cl)c(F)c45)cn3)ccc21` [Example 51, (R)-6-Chloro-5-fluoro-1′-(1-((4-methyl-3,4-dihydro-2H-benzo[b][1,4]oxazin-7-yl)methyl)-1H-pyrazole-4-carbonyl)spiro[benzo[d][1,3]oxazine-4,3′-piperidin]-2(1H)-one], 35.1 nM.
For `CC[C@@H](c1ccc(F)cc1)c1nnc(C(=O)N2CCC[C@@]3(C2)OC(=O)Nc2ccc(Cl)c(F)c23)[nH]1` (single isomer, unassigned) [Example 84], the IC50 was 4.5 nM.
As for `Nc1noc2ccc(Cn3cc(C(=O)N4CCC[C@@]5(C4)OC(=O)Nc4ccc(Cl)c(F)c45)cn3)cc12` [Example 57, (R)-1′-(1-((3-Aminobenzo[d]isoxazol-5-yl)methyl)-1H-pyrazole-4-carbonyl)-6-chloro-5-fluorospiro[benzo[d][1,3]oxazine-4,3′-piperidin]-2(1H)-one], the IC50 is 29.7 nM.
As for `O=C1Nc2ccc(Cl)c(F)c2[C@@]2(CCCN(C(=O)c3cnn(Cc4ccc(-n5cc[nH]c5=O)cc4)c3)C2)O1` [Example 50, (R)-6-Chloro-5-fluoro-1′-(1-(4-(2-oxo-2,3-dihydro-1H-imidazol-1-yl)benzyl)-1H-pyrazole-4-carbonyl)spiro[benzo[d][1,3]oxazine-4,3′-piperidin]-2(1H)-one], the IC50 came out at 13.7 nM.
Regarding `O=C1Nc2ccc(Cl)c(F)c2[C@@]2(CCCN(C(=O)c3nnc(Cc4cc(F)cc(F)c4)[nH]3)C2)O1` [Example 120, (R)-6-Chloro-1′-(5-(3,5-difluorobenzyl)-4H-1,2,4-triazole-3-carbonyl)-5-fluorospiro[benzo[d][1,3]oxazine-4,3′-piperidin]-2(1H)-one], the IC50 was 21.1 nM.
In the case of `Cc1cccc(Cc2n[nH]c(C(=O)N3CCC[C@@]4(C3)OC(=O)Nc3ccc(Cl)c(F)c34)n2)c1` [Example 113, (R)-6-Chloro-1′-(3-(3-methylbenzyl)-1H-1,2,4-triazole-5-carbonyl)-5-fluorospiro[benzo[d][1,3]oxazine-4,3′-piperidin]-2(1H)-one], the IC50 is 18.3 nM.
As to `O=C1Nc2ccc(Cl)c(F)c2[C@@]2(CCCN(C(=O)c3cnn(Cc4ccc5c(c4)CNS5(=O)=O)c3)C2)O1` [Example 64, (R)-6-chloro-1′-(1-((1,1-dioxido-2,3-dihydrobenzo[d]isothiazol-5-yl)methyl)-1H-pyrazole-4-carbonyl)-5-fluorospiro[benzo[d][1,3]oxazine-4,3′-piperidin]-2(1H)-one], the IC50 is 24.2 nM.
On the same count and under the same terms, next, `O=C1Nc2ccc(Cl)c(F)c2[C@@]2(CCCN(C(=O)c3cnn(Cc4ccc5c(c4)CC(CO)O5)c3)C2)O1` (stereo partly drawn) [Example 58, (4R)-6-Chloro-5-fluoro-1′-(1-((2-(hydroxymethyl)-2,3-dihydrobenzofuran-5-yl)methyl)-1H-pyrazole-4-carbonyl)spiro[benzo[d][1,3]oxazine-4,3′-piperidin]-2(1H)-one]: 10.7 nM.
As for `O=C1Nc2ccc(Cl)c(F)c2[C@@]2(CCCN(C(=O)c3cnn(Cc4ccc5c(c4)COCC5)c3)C2)O1` [Example 56, (R)-6-Chloro-5-fluoro-1′-(1-(isochroman-7-ylmethyl)-1H-pyrazole-4-carbonyl)spiro[benzo[d][1,3]oxazine-4,3′-piperidin]-2(1H)-one], the IC50 stood at 10.9 nM.
Regarding `O=C1Nc2ccc(Cl)c(F)c2[C@@]2(CCCN(C(=O)c3nnc(Cc4cccc(CO)c4)[nH]3)C2)O1` [Example 116, (R)-6-Chloro-5-fluoro-1′-(5-(3-(hydroxymethyl)benzyl)-4H-1,2,4-triazole-3-carbonyl)spiro[benzo[d][1,3]oxazine-4,3′-piperidin]-2(1H)-one], the half-inhibitory concentration (IC50) was 39.9 nM.
Still for that read-out and setting: next, `O=C1Nc2ccc(Cl)c(F)c2[C@@]2(CCCN(C(=O)c3nnc(Cc4cccc(C(F)(F)F)c4)[nH]3)C2)O1` [Example 115, (R)-6-Chloro-5-fluoro-1′-(5-(3-(trifluoromethyl)benzyl)-4H-1,2,4-triazole-3-carbonyl)spiro[benzo[d][1,3]oxazine-4,3′-piperidin]-2(1H)-one]: 23.9 nM; `O=C1Nc2ccc(Cl)c(F)c2[C@@]2(CCCN(C(=O)C3(F)CCN(Cc4ccccc4)C3)C2)O1` (single isomer, unassigned) [Example 131, (R)-1′-((S or R)-1-Benzyl-3-fluoropyrrolidine-3-carbonyl)-6-chloro-5-fluorospiro[benzo[d][1,3]oxazine-4,3′-piperidin]-2(1H)-one]: 9.4 nM; `Cc1cnn(Cc2ccc(Cn3cc(C(=O)N4CC[C@]5(C4)OC(=O)Nc4ccc(Cl)c(F)c45)cn3)cc2)c1` [Example 134, (S)-6-Chloro-5-fluoro-1′-(1-(4-((4-methyl-1H-pyrazol-1-yl)methyl)benzyl)-1H-pyrazole-4-carbonyl)spiro[benzo[d][1,3]oxazine-4,3′-pyrrolidin]-2(1H)-one]: 20.8 nM.
As to `Cc1cc(Cc2nnc(C(=O)N3CCC[C@@]4(C3)OC(=O)Nc3ccc(Cl)c(F)c34)[nH]2)cc2[nH]nnc12` [Example 123, (R)-6-Chloro-5-fluoro-1′-(5-((4-methyl-1H-benzo[d][1,2,3]triazol-6-yl)methyl)-4H-1,2,4-triazole-3-carbonyl)spiro[benzo[d][1,3]oxazine-4,3′-piperidin]-2(1H)-one], the IC50 worked out at 19.1 nM.

A further assay has as its target T2, human factor XIa (Homo sapiens, UniProt P03951).
T2 construct: with human (0.04 nM) factor XIa
Put plainly: Factor XIa Assay. It counts as biochemical. The settings on record: human factor XIa 0.04 nM, substrate GPR-AFC, 25° C. As for the experimental part:
as §1, with “Coagulation factor XIa” for “plasma kallikrein”
Compounds were pre-incubated for 30 min at 25° C. with human (0.04 nM) factor XIa in 50 mM HEPES buffer with 150 mM sodium chloride, 5 mM calcium chloride, 0.1% PEG 8000, pH 7.4. factor XIa enzymatic activity was determined by addition of the substrate glycine-proline-arginine-7-amido-4-trifluoromethylcoumarin (GPR-AFC) and measurement of the fluorescence at 400/505 nm after a 60 min incubation at 25° C. The % inhibition for each data point was calculated from the data and analyzed using the log (inhibitor) vs. response four parameters equation to determine the half-maximal inhibitory concentrations (IC50). The IC50 were converted to equilibrium inhibitory constants (Ki) using the Cheng-Prusoff equation.
The compound `O=C1Nc2ccc(Cl)c(F)c2[C@@]2(CCCN(C(=O)c3nnc(C(Cc4ccccc4)c4ccccc4)[nH]3)C2)O1` (single isomer, unassigned) [Example 105] gave an IC50 of 3600 nM.
The same measure, in the same setting: next, `CCC(c1c(C)noc1C)n1cc(C(=O)N2CCC[C@@]3(C2)OC(=O)Nc2ccc(Cl)c(F)c23)cn1` (single isomer, unassigned) [Example 44]: 2420 nM.
For `O=C1Nc2ccc(Cl)c(F)c2[C@@]2(CCCN(C(=O)c3nnc(C(Cc4ccccc4)c4ccccc4)[nH]3)C2)O1` (single isomer, unassigned) [Example 104], 2990 nM corresponded to half-maximal inhibition (IC50).
`CCC(c1ccc2cnccc2c1)n1cc(C(=O)N2CCC[C@@]3(C2)OC(=O)Nc2ccc(Cl)c(F)c23)cn1` (single isomer, unassigned) [Example 36] returned an IC50 of 2490 nM.
On to `O=C1Nc2ccc(Cl)c(F)c2[C@@]2(CCCN(C(=O)c3cnn(Cc4ccccc4)c3)C2)O1` [Example 3, (R)-1′-(1-Benzyl-1H-pyrazole-4-carbonyl)-6-chloro-5-fluorospiro[benzo[d][1,3]oxazine-4,3′-piperidin]-2(1H)-one], for which half-maximal inhibition (IC50) required 1380 nM.
